Data: PubChem BioAssay AID2060908 (Molecular Pharmacology Branch, DTP, NCI, 2025)

System: 186277-243-T-J2-PDC complex spheroids, viability
Test: Anticancer human tumor 186277-243-T-J2-PDC patient-derived colon adenocarcinoma cell line growth inhibition [RAS]
Conditions: for IC50: curve of first compound; for viability, T/C: stronger effect = lower value
Description: RAS pathway inhibitors in Combinations in Complex Spheroids
A high-throughput screen of multi-cell type tumor spheroids was designed to identify active combinations of RAS pathway inhibitors and targeted small molecules. Complex spheroids include a stromal component modeled by human endothelial cells (HUVEC) and fibroblasts modeled by human mesenchymal stem cells (MSCs). The concentration ranges selected for each drug and investigational agent were based upon clinically achievable concentrations if the clinical Cmax of the agent was known.
Compounds. The drugs and investigational agents: abemaciclib (NSC768073), cobimetinib (NSC768068), divarasib (GDC6063, NSC841802), docetaxel (NSC628503), GDC-1971 (RLY-1971, NSC841576), gemcitabine (NSC613327), inavolisib (NSC800729), ipatasertib (NSC767898), KB-0742 (NSC834161), MRTX-1133 (NSC836407), osimertinib (NSC779217), RMC-4630 (NSC839698), RMC-6236 (NSC851965), RMC-6291 (NSC852671), Ro-3306 (NSC812927), sapanisertib (NSC764658), SN-38 (NSC673596), staurosporine (NSC755774), SY5609 (NSC837396), and tovorafenib (DAY101, NSC766906), were obtained from the National Cancer Institute (NCI) Developmental Therapeutics Program Chemical Repository. The FDA-approved anticancer drug set is available from the NCI Developmental Therapeutics Program. […] The stock solutions were prepared in dimethyl sulfoxide (DMSO, Sigma-Aldrich, St. Louis, MO, cat. D2650) at 800-fold the tested concentration and stored at -70 degrees C prior to their use. All drugs and investigational agents were tested over a range starting from a high concentration at or near the clinical Cmax and decreasing in half-log increments. If the clinical Cmax for an agent had not been determined, the highest concentration tested was 10 microM.
Cell Culture. All cells were maintained in an incubator at 37 degrees C and 5% CO2 with 95% humidity. The PDC lines were cultured according to standard operating procedures established by the NCI PDMR. All PDCs were thawed and cultured in Matrigel-coated flasks prepared with a working solution of 1X Ham's F-12 nutrient mix, without supplementation (Invitrogen, Waltham, MA, cat. 11765054), 100 U/mL penicillin-streptomycin (Invitrogen, cat. 15140122), and 2.5% Matrigel (Corning Inc., Corning, NY, cat. 354248) for the first three passages. The 362531-283-R-J2-PDC and 782815-120-R-J1-PDC lines were cultured in 6C/Colon 1B media, which includes advanced DMEM/F-12 (Thermo Fisher Scientific, cat. 12634028), 10 mM HEPES (Thermo Fisher Scientific, cat. 15630080), 1X GlutaMAX supplement (Thermo Fisher Scientific, cat. 35050061), 0.1 mg/mL primocin (InvivoGen, San Diego, CA, cat. ant-pm-2), 10% defined fetal bovine serum, heat inactivated (HyClone Laboratories Inc., Logan, UT, cat. SH30070.03HI), 50% L-WRN conditioned media (ATCC, cat. CRL-3276), 1.25 mM N-Acetyl-L-cysteine (Sigma-Aldrich, cat. A9165), 10 mM nicotinamide (Sigma-Aldrich, cat. N0636), 1X B-27 supplement (Thermo Fisher Scientific, cat. 17504044), 1X N-2 supplement (Thermo Fisher Scientific, cat. 17502048), 50 ng/mL human EGF (Thermo Fisher Scientific, cat. PHG0311), and 10 microM Y-27632 dihydrochloride (Tocris Bioscience, cat. 1254). The K12877-001-R-J1-PDC line was cultured in 6I media, which includes all 6C/Colon 1B media plus 10 ng/mL human FGF-10 (PeproTech, cat. 100-26), 1 ng/mL human FGF-2 (PeproTech, cat. 100-18B), 1 µM prostaglandin E2 (Tocris Bioscience, cat. 2296), […] hydrocortisone (Sigma-Aldrich, cat. H4001), and […] bovine insulin (Sigma-Aldrich, cat. I6634). The K86415-001-R-J1-PDC line was cultured in 6D media, which includes all 6C/Colon 1B media components minus the L-WRN conditioned media. The 485176-168-R4-J1-PDC was cultured in PANC media, which includes all 6C/Colon 1B media plus 100 ng/mL human FGF-10 (PeproTech, cat. 100-26), 500 nM SB-431542 (Selleckchem, cat. S1067), and 10 nM gastrin (Tocris Bioscience, cat. 3006). […]
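Note: spheroids exposed to compounds for 7 days before viability read.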

C=CC(=O)N1CCN(c2nc(OCC3CCCN3C)nc3c(F)c(-c4nc(N)cc(C)c4C(F)(F)F)c(Cl)cc23)C(C)C1 (configuration not stated) + CCn1c(-c2cccnc2C(C)OC)c2c3cc(ccc31)N1CCOC(CC(NC(=O)C(C(C)C)N(C)C(=O)C3(F)CCN(C(=O)C#CC(C)(C)N(C)C)CC3)C(=O)N3CCCC(N3)C(=O)OCC(C)(C)C2)C1
IC50 (second compound 0.000949 µM): > 1000 nM
IC50 (second compound 0.003 µM): > 1000 nM
IC50 (second compound 0.00949 µM): > 1000 nM
IC50 (second compound 0.03 µM): > 1000 nM
IC50 (second compound 0.0949 µM): > 1000 nM
IC50 (second compound 0.3 µM): > 1000 nM
viability, T/C (second compound 0.000949 µM, first compound 0.00316 µM): 88.7%
viability, T/C (second compound 0.000949 µM, first compound 0.01 µM): 79%
viability, T/C (second compound 0.000949 µM, first compound 0.0316 µM): 89.2%
viability, T/C (second compound 0.000949 µM, first compound 0.1 µM): 80.8%
viability, T/C (second compound 0.000949 µM, first compound 0.316 µM): 95.6%
viability, T/C (second compound 0.000949 µM, first compound 1 µM): 96.6%
viability, T/C (second compound 0.003 µM, first compound 0.00316 µM): 88%
viability, T/C (second compound 0.003 µM, first compound 0.01 µM): 97.6%
viability, T/C (second compound 0.003 µM, first compound 0.0316 µM): 83.4%
viability, T/C (second compound 0.003 µM, first compound 0.1 µM): 102%
viability, T/C (second compound 0.003 µM, first compound 0.316 µM): 94.1%
viability, T/C (second compound 0.003 µM, first compound 1 µM): 111%
viability, T/C (second compound 0.00949 µM, first compound 0.00316 µM): 91.6%
viability, T/C (second compound 0.00949 µM, first compound 0.01 µM): 102%
viability, T/C (second compound 0.00949 µM, first compound 0.0316 µM): 104%
viability, T/C (second compound 0.00949 µM, first compound 0.1 µM): 106%
viability, T/C (second compound 0.00949 µM, first compound 0.316 µM): 98.6%
viability, T/C (second compound 0.00949 µM, first compound 1 µM): 98.3%
viability, T/C (second compound 0.03 µM, first compound 0.00316 µM): 81.4%
viability, T/C (second compound 0.03 µM, first compound 0.01 µM): 105%
viability, T/C (second compound 0.03 µM, first compound 0.0316 µM): 95.8%
viability, T/C (second compound 0.03 µM, first compound 0.1 µM): 107%
viability, T/C (second compound 0.03 µM, first compound 0.316 µM): 116%
viability, T/C (second compound 0.03 µM, first compound 1 µM): 91.7%
viability, T/C (second compound 0.0949 µM, first compound 0.00316 µM): 85.3%
viability, T/C (second compound 0.0949 µM, first compound 0.01 µM): 109%
viability, T/C (second compound 0.0949 µM, first compound 0.0316 µM): 121%
viability, T/C (second compound 0.0949 µM, first compound 0.1 µM): 106%
viability, T/C (second compound 0.0949 µM, first compound 0.316 µM): 95.6%
viability, T/C (second compound 0.0949 µM, first compound 1 µM): 93.7%
viability, T/C (second compound 0.3 µM, first compound 0.00316 µM): 98.2%
viability, T/C (second compound 0.3 µM, first compound 0.01 µM): 93.7%
viability, T/C (second compound 0.3 µM, first compound 0.0316 µM): 111%
viability, T/C (second compound 0.3 µM, first compound 0.1 µM): 97.5%
viability, T/C (second compound 0.3 µM, first compound 0.316 µM): 114%
viability, T/C (second compound 0.3 µM, first compound 1 µM): 99.7%
